Four compounds from ChEMBL document CHEMBL5614367, “Hydroxamic acid hybrids: Histone deacetylase inhibitors with anticancer therapeutic potency” (Eur J Med Chem, 2023) can be followed below.

Assay [1] deals with T1, Protein deacetylase HDAC6 (Homo sapiens, UniProt Q9UBN7).
T1 sequence (Q9UBN7 whole entry): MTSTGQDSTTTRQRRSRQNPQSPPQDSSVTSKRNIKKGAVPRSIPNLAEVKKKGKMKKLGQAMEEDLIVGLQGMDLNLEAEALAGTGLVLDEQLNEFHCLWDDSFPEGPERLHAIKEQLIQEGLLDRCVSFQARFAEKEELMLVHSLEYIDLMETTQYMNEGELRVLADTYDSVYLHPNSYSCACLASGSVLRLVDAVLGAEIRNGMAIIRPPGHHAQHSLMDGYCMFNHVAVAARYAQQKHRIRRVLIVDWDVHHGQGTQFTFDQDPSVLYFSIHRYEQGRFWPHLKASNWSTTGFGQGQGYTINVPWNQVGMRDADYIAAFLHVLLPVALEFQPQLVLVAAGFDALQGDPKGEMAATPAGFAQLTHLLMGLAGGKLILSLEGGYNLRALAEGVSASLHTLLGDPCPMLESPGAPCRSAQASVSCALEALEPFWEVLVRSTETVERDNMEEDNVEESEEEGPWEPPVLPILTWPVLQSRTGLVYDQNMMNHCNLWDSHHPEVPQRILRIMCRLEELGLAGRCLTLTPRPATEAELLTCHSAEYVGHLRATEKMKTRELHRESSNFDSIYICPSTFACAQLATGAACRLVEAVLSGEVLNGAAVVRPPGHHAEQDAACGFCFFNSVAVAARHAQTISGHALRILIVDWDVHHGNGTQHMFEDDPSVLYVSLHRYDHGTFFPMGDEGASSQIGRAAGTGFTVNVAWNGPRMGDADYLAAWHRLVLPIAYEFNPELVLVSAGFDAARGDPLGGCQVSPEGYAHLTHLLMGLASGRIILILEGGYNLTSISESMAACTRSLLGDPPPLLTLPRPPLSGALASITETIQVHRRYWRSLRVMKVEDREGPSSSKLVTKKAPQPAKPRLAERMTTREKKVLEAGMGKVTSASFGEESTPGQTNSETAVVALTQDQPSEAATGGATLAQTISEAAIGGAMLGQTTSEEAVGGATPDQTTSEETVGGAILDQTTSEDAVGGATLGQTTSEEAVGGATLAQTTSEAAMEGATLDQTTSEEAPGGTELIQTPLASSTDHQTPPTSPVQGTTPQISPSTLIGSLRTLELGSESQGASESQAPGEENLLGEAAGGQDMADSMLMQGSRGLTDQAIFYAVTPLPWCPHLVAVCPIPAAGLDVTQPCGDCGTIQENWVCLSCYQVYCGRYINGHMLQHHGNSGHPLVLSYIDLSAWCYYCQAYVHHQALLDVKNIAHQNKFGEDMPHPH
Description: Inhibition of HDAC6 (unknown origin).

Assay [2] deals with Serine/threonine-protein kinase B-raf (Homo sapiens, UniProt P15056). The experiment in a line: Inhibition of wild type BRAF (unknown origin).
Assay [3] deals with Serine/threonine-protein kinase B-raf (Homo sapiens, UniProt P15056, V600E). The experiment in a line: Inhibition of BRAF V600E mutant (unknown origin).
Assay [4] deals with HCT-116. The experiment in a line: cells. The following applies: Homo sapiens.
Description: Antiproliferative activity against human HCT-116 cells
Assay [5] has as its system LNCaP. Description: Antiproliferative activity against human LNCaP cells assessed as inhibition of cell growth measured after 72 hrs by SRB assay. The class given is functional, cell-based.
The subject of assay [6] is LNCaP C4-2. Description: Antiproliferative activity against human C4-2 cells assessed as inhibition of cell growth measured after 72 hrs by SRB assay. It is filed as functional, cell-based. Particulars: LNCaP C4-2, 72 h.
For assay [7], the system named is LNCaP C4-2B. Description: Antiproliferative activity against human LNCaP C4-2B cells assessed as inhibition of cell growth measured after 72 hrs by SRB assay. It is filed as functional, cell-based.
Assay [8] relates to LAPC4. The experiment in a line: Antiproliferative activity against human LAPC4 cells assessed as inhibition of cell growth measured after 72 hrs by SRB assay. It is filed as functional, cell-based. Particulars: LAPC4, 72 h.
Assay [9] deals with PC-3. The experiment in a line: Antiproliferative activity against human PC-3 cells assessed as inhibition of cell growth measured after 72 hrs by SRB assay. It is filed as functional, cell-based. Particulars: PC-3, 72 h.
Assay [10] concerns DU-145. Description: Antiproliferative activity against human DU-145 cells assessed as inhibition of cell growth measured after 72 hrs by SRB assay. It is filed as functional, cell-based. The following applies: DU-145, 72 h.
The test system of assay [11] is CWR22R. The experiment in a line: Antiproliferative activity against human 22Rv1 cells assessed as inhibition of cell growth measured after 72 hrs by SRB assay. It is filed as functional, cell-based. The following applies: 22Rv1, 72 h.
The test system of assay [12] is KYSE-150 cell line. The experiment in a line: Antiproliferative activity against human KYSE-150 cells assessed as inhibition of cell growth measured after 72 hrs by CCK-8 assay. The class given is functional, cell-based. Particulars: KYSE-150, 72 h.
Assay [13] has as its system KYSE-450. Description: Antiproliferative activity against human KYSE-450 cells assessed as inhibition of cell growth measured after 72 hrs by CCK-8 assay. The class given is functional, cell-based. The following applies: KYSE-450, 72 h.
For assay [14], the system named is KYSE-510. Description: Antiproliferative activity against human KYSE-510 cells assessed as inhibition of cell growth measured after 72 hrs by CCK-8 assay. Particulars: KYSE-510, 72 h. The class given is functional, cell-based.
In assay [15] the test system is KYSE-30. The experiment in a line: Antiproliferative activity against human KYSE-30 cells assessed as inhibition of cell growth measured after 72 hrs by CCK-8 assay. The class given is functional, cell-based. The following applies: KYSE-30, 72 h.
For assay [16], the system named is ASPC1. The experiment in a line: Antiproliferative activity against human ASPC1 cells assessed as inhibition of cell growth measured after 72 hrs by MTT assay. The following applies: ASPC1, 72 h. The class given is functional, cell-based.
In assay [17] the test system is BXPC-3. The experiment in a line: Antiproliferative activity against human BXPC-3 cells assessed as inhibition of cell growth measured after 72 hrs by MTT assay. It is filed as functional, cell-based. The following applies: BXPC-3, 72 h.
Assay [18] concerns CFPAC-1. The experiment in a line: Antiproliferative activity against human CFPAC-1 cells assessed as inhibition of cell growth measured after 72 hrs by MTT assay. The class given is functional, cell-based. Particulars: CFPAC-1, 72 h.
Assay [19] deals with HPAC. The experiment in a line: Antiproliferative activity against human HPAC cells assessed as inhibition of cell growth measured after 72 hrs by MTT assay. The class given is functional, cell-based.
Assay [20] deals with MIA PaCa-2. Description: Antiproliferative activity against human MIA PaCa-2 cells assessed as inhibition of cell growth measured after 72 hrs by MTT assay. It is filed as functional, cell-based. The following applies: MIA PaCa-2, 72 h.
For assay [21], the system named is PANC-1. The experiment in a line: Antiproliferative activity against human PANC-1 cells assessed as inhibition of cell growth measured after 72 hrs by MTT assay. Particulars: PANC-1, 72 h. It is filed as functional, cell-based.
For assay [22], the system named is KYSE-450. The experiment in a line: Antitumor activity against human KYSE-450 cells xenografted in male C57BL/6 nude mouse assessed as reduction in tumor growth at 200 mg/kg, po administered for 5 days followed by 2 off schedule and measured every third day for 31 days relative to control. The arrangement: scale not given: the % may be the effect or the level left. The following applies: time 31 day. The class given is functional.

For assay [23], the system named is BXPC-3. The experiment in a line: Antitumor activity against human BXPC-3 cells xenografted in female BALB/c nude mouse assessed as tumor inhibition rate by measuring T/C ratio at 10 mg/kg, ip administered for 20 days and measured every 1 to 3 days relative to control. It is filed as functional. Particulars: time 20 day.
Assay [24] deals with A549. Description: Antitumor activity against human A549 cells xenografted in assessed as reduction in tumor growth at 50 mg/kg, po administered via oral gavage 5 days on/2 days off dosing and measured on day 10,25 and 31 relative to control. It is filed as functional. The following applies: time 31 day. Also noted: scale not given: the % may be the effect or the level left.

Assay [25] is described as follows: Antitumor activity against human Castration-resistant LuCaP 35CR cells xenografted in male CB17 SCID mouse assessed as inhibition of tumor growth at 100 mg/kg, po administered via oral gavage measured after 19 days relative to control. The class given is functional. Particulars: 456 h, time 19 day.
The test system of assay [26] is DU-145. Description: cells. The following applies: Homo sapiens, DU-145, 48 h; pooled result: one value given for 6 cell lines, strains, targets or settings. It is filed as functional, cell-based.
Assay [27] has as its target Histone deacetylase. Description: Inhibition of human HDAC extracted from human HeLa cell nuclear extract incubated for 30 mins by fluorometric analysis. It is filed as subcellular, Nucleus.
The target of assay [28] is Epidermal growth factor receptor (Homo sapiens) (UniProt P00533). Description: Inhibition of EGFR (unknown origin) at 10 uM preincubated for 0.5 hrs followed by substrate addition and measured after 1 hr by ADP-Glo assay relative to control. The following applies: time 1.5 hrs.
The subject of assay [29] is A549. Description: Antiproliferative activity against human A549 cells assessed as inhibition of cell growth incubated for 48 hrs by SRB assay. The class given is functional, cell-based. Particulars: A549, 48 h.
Assay [30] relates to HCT-116. Description: cells. It is filed as functional, cell-based. The following applies: Homo sapiens, HCT-116, 48 h.
Assay [31] deals with T1, Protein deacetylase HDAC6. The experiment in a line: Inhibition of human recombinant HDAC6 using Fluor-de-Lys deacetylase as substrate by Spectrofluorimetry.

Sequence of Serine/threonine-protein kinase B-raf (Homo sapiens, UniProt P15056) (P15056 whole entry): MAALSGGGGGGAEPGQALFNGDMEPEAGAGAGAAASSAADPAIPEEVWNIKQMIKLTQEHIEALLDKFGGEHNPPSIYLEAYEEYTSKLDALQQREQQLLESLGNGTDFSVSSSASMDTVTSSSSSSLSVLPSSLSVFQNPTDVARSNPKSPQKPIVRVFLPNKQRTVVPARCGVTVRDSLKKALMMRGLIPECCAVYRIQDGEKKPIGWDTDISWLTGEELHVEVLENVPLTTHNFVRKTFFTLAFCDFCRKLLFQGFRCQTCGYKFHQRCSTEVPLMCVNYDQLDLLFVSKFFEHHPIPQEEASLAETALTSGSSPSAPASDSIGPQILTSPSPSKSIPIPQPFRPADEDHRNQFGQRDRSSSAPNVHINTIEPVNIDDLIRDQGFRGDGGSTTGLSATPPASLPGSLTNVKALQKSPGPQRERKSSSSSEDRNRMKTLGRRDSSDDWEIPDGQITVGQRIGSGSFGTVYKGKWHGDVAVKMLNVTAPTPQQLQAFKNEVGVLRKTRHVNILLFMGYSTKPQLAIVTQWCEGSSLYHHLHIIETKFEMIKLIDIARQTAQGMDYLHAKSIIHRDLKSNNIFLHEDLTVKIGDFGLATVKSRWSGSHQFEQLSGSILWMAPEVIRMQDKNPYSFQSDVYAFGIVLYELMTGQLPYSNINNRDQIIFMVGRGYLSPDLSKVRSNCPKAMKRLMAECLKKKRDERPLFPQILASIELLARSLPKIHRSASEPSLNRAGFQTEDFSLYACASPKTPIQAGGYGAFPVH
Sequence of Serine/threonine-protein kinase B-raf (Homo sapiens, UniProt P15056, V600E) (P15056 2-766 V600E limits assumed): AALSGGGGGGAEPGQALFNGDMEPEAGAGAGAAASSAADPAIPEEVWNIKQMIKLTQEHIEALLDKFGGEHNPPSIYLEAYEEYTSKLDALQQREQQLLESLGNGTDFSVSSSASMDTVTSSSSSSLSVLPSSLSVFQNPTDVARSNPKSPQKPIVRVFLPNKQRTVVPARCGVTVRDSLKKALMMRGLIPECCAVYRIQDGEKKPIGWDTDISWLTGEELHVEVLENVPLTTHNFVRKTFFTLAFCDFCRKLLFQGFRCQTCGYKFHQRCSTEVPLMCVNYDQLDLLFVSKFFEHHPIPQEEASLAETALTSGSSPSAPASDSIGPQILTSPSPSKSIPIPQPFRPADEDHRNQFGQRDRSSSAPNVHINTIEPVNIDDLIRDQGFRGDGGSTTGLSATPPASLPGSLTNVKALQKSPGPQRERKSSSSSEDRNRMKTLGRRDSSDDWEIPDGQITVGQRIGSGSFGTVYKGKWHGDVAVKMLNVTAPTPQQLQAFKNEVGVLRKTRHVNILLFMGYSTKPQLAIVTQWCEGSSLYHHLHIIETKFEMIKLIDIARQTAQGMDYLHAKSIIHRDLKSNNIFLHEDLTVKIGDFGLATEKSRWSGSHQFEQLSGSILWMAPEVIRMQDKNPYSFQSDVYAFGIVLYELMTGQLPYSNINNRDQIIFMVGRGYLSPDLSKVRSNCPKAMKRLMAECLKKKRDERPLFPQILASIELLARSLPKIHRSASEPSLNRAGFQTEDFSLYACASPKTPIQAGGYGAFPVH
Sequence of Epidermal growth factor receptor (Homo sapiens) (P00533 whole entry): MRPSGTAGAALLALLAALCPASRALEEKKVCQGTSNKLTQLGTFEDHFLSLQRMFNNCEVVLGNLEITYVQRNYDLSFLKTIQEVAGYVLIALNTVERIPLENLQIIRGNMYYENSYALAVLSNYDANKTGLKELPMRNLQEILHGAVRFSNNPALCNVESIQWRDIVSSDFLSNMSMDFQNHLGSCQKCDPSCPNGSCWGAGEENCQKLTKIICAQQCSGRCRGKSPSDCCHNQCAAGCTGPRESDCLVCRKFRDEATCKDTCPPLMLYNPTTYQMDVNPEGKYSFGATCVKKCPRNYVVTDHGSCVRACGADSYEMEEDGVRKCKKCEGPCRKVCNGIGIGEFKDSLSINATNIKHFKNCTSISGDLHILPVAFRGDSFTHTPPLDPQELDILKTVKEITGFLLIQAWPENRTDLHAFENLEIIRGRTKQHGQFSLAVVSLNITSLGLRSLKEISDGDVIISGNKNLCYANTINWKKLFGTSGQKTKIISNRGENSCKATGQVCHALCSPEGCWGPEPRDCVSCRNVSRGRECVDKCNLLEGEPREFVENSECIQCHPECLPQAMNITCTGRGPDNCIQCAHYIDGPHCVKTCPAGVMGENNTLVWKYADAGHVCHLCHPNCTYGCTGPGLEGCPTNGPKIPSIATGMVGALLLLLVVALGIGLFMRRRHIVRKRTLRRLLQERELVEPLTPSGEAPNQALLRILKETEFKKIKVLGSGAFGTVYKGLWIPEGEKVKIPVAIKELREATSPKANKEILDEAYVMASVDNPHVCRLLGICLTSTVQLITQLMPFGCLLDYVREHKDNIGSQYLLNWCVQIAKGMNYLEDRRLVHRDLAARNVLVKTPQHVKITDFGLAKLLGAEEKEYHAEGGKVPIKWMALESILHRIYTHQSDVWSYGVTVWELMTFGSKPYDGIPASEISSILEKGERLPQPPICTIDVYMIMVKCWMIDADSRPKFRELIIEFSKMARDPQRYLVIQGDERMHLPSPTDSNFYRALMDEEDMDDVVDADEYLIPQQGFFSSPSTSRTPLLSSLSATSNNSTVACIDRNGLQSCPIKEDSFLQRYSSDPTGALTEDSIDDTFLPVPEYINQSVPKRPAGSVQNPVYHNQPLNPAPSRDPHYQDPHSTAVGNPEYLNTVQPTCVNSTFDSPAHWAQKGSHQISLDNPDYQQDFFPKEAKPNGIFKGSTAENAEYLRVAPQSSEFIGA

`O=C(CCCCCCNc1nccc(-c2sc(-c3ccccc3)nc2-c2cccc(NS(=O)(=O)c3c(F)cccc3F)c2F)n1)NO`: the IC50 in assay [1] is 15.6 nM; in assay [2], 1.71 nM; in assay [3], 1.71 nM; in assay [4], 310 nM.
Regarding `COc1ccc(-c2nc(N3CCOCC3)c3sc(CN(C)c4ncc(C(=O)NO)cn4)cc3n2)cn1` [FIMEPINOSTAT], the half-inhibitory concentration (IC50) in assay [5], in assay [6], in [7], in assay [8], in assay [9] and in assay [10] was 2 nM throughout. The half-inhibitory concentration (IC50) in [11], in [12], in assay [13], in assay [14], in assay [15] and in assay [16] was 2 nM each time. Further, the IC50 in assay [17], in [18], in assay [19], in assay [20] and in [21] was 2 nM each time. The figures for the Activity in [22] and in assay [24] were about 65% and about 80%, respectively. Moreover, in assay [23], the T/C came out at 52%. In addition, the inhibition in vivo at 100 mg/kg in [25] was about 60%.
Turning to `O=C(CCCCCCC(=O)Nc1ccc2ncnc(Nc3cccc(Cl)c3)c2c1)NO`, the IC50 in assay [26] is 1180 nM; in assay [27] it was 474 nM. For the same compound, the inhibition in assay [28] came out at 75%.
For `O=C(NO)c1ccc(CNc2cccc3cc(-c4ccncc4)cnc23)cc1`, the values for the concentration for half-maximal inhibition (IC50) in assay [29], in assay [30] and in assay [31] were 1290 nM, 1290 nM and 8.16 nM, respectively.
